Structures can show the parent of a compound that is named as a salt. Where two headings read alike, the source gives them in different places.
Columns and labels:
[1] = test system: TT cells; assay: RET kinase cell-based proliferation assay; design: species or system human; conditions: 192 h, read-out: RET IC50
Excerpt: RET Kinase Cell-Based Proliferation Assay

[2] = biological target: Human RET kinase cytoplasmic domain (Homo sapiens (Human), UniProt P07949); assay: RET kinase enzymatic assay; assay type: biochemical; conditions: human RET kinase enzymatic assay (Table 2)
Human RET kinase cytoplasmic domain, sequence (P07949 658-1114): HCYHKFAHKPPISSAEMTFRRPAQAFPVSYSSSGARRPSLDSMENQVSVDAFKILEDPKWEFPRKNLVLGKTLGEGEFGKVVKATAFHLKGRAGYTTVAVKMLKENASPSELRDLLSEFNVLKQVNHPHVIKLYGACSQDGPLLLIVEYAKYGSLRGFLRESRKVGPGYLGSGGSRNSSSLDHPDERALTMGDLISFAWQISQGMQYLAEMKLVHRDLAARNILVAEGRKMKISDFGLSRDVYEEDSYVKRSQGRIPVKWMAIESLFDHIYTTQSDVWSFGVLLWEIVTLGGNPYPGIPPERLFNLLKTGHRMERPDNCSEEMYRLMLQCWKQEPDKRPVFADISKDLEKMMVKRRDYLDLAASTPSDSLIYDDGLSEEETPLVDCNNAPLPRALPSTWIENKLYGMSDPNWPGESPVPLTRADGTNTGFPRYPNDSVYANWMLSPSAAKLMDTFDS
Protocol: RET Kinase Enzymatic Assay
GST-RET was purified using glutathione sepharose chromatography. The RET kinase enzymatic assay was performed in a total volume of 10 uL with increasing concentrations of RET kinase inhibitor as a singlet in a 384 well format as follows: RET inhibitor compound plates are prepared by adding 100 nL of RET inhibitor at different concentrations to a 384-well plate. 5 μL/well of a 2× enzyme mix (50 mM HEPES (4-(2-hydroxyethyl)-1-piperazineethanesulfonic acid); 1 mM CHAPS (3[(3-cholamidopropyl)dimethylammonio]-1-propanesulfonate); 0.1 mg/mL BSA (bovine serum albumin); 1 mM DTT (dithiothreitol); 0.2 nM RET kinase) was added to the 384-well plate and incubated for 30 minutes at 23° C.

[3] = biological target: constitutive RET kinase phosphorylation in TT cells (Homo sapiens (Human), UniProt P07949, C634W); assay: RET kinase cell-based mechanistic assay
constitutive RET kinase phosphorylation in TT cells, sequence (P07949 29-1114 C634W): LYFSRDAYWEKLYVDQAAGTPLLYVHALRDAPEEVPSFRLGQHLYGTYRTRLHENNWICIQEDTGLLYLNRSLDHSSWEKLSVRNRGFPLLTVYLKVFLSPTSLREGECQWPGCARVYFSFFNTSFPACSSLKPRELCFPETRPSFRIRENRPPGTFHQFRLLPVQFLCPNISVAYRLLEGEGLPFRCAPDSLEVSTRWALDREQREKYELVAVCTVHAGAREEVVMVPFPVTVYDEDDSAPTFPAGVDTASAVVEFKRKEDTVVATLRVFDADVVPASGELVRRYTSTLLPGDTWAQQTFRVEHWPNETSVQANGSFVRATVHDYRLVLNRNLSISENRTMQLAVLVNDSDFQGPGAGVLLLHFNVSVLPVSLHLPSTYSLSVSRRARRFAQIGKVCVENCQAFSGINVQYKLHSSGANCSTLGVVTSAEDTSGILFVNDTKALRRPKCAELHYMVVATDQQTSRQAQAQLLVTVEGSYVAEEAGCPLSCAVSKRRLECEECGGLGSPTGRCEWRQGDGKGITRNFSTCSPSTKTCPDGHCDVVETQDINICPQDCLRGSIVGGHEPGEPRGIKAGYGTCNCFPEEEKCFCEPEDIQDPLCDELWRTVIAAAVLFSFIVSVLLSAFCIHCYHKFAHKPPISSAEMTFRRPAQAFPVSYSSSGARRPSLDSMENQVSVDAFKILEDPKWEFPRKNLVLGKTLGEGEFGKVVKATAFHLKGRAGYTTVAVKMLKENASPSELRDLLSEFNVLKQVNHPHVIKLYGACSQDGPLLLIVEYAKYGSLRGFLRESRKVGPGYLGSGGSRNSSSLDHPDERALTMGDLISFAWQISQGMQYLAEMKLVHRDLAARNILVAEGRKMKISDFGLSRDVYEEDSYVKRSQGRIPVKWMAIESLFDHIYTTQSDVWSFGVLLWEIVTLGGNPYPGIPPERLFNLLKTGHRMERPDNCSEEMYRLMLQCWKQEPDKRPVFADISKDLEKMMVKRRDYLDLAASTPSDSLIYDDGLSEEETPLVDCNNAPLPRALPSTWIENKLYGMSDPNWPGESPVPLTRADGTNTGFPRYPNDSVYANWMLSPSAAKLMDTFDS
Protocol: RET Kinase Cell-Based Mechanistic Assay
The potency of the compound of the invention was tested for its ability to inhibit constitutive RET kinase phosphorylation in cell-based assay. […] 1.0E5 TT cells/well were plated in a 96-well cell culture plate and allowed to adhere overnight. […] IC50s were fitted using GraphPad Prism to a sigmoidal dose response.

[4] = human RET kinase cell-based proliferation assay, TT cells, eight days (Table 4)

Structure (SMILES) | IC50 ([1]; Homo sapiens, TT) [µM] | IC50 [2] [µM] | IC50 [3] [µM] | IC50 [1, 4] [µM]
CCOc1cc(-c2ccc(CC(=O)Nc3cc(C(C)(C)C(F)(F)F)nn3C)c(F)c2)c[nH]c1=O [Example 41, 2-(4-(5-ethoxy-6-oxo-1,6-dihydropyridin-3-yl)-2-fluorophenyl)-N-(1-methyl-3-(1,1,1-trifluoro-2-methylpropan-2-yl)-1H-pyrazol-5-yl)acetamide hydrochloride] | 0.1 to 0.5 | < 0.1 | < 0.1 | –
CCOc1cc(-c2ccc(CC(=O)Nc3cc(C(C)(C)C(F)(F)F)n[nH]3)c(F)c2)c[nH]c1=O [Example 42, 2-(4-(5-ethoxy-6-oxo-1,6-dihydropyridin-3-yl)-2-fluorophenyl)-N-(3-(1,1,1-trifluoro-2-methylpropan-2-yl)-1H-pyrazol-5-yl)acetamide hydrochloride] | < 0.1 | < 0.1 | < 0.1 | –
CCOc1cc(-c2ccc(CC(=O)Nc3ccc(CC(F)(F)CO)c(C(F)(F)F)c3)c(F)c2)c[nH]c1=O [Example 43, N-(4-(2,2-difluoro-3-hydroxypropyl)-3-(trifluoromethyl)phenyl)-2-(4-(5-ethoxy-6-oxo-1,6-dihydropyridin-3-yl)-2-fluorophenyl)acetamide] | – | < 0.1 | < 0.1 | < 0.1
CCOc1cc(-c2ccc(CC(=O)Nc3cc(-c4cnn(C)c4)cc(C(F)(F)F)c3)c(F)c2)c[nH]c1=O [Example 45, 2-(4-(5-ethoxy-6-oxo-1,6-dihydropyridin-3-yl)-2-fluorophenyl)-N-(3-(1-methyl-1H-pyrazol-4-yl)-5-(trifluoromethyl)phenyl)acetamide hydrochloride] | 0.1 to 0.5 | < 0.1 | < 0.1 | –
CCOc1cc(-c2ccc(CC(=O)Nc3cc(OCCN(C)C)cc(C(F)(F)F)c3)c(F)c2)c[nH]c1=O [Example 46, N-(3-(2-(dimethylamino)ethoxy)-5-(trifluoromethyl)phenyl)-2-(4-(5-ethoxy-6-oxo-1,6-dihydropyridin-3-yl)-2-fluorophenyl)acetamide] | – | < 0.1 | < 0.1 | < 0.1

Reference: patent US9789100B2, “Compounds as rearranged during transfection (RET) inhibitors” (GlaxoSmithKline Intellectual Property Development Limited, priority 2013, dated 2017)
